Experimental data as given in US20180344725A1, “QUINOLONE CHALCONE COMPOUNDS AND USES THEREOF” (priority 2015, published 2018).

Key:
[1] = system: MCF10AT1; experiment: SRB cell viability, isogenic breast cell lines; assay type: cell-based; conditions: 0.39 μM, 72 hours
Procedure: (§1) FIG. 9 illustrates that CTR-17, CTR-20, CTR-21 and CTR-32 preferentially kill the fully malignant […] breast cancer cells over the pre-malignant MCF10AT1 and the non-malignant MCF-10A breast cells. Cells were treated with (A) CTR-17 at doses of 0.10, 0.39, 1.56 or 6.25 μM; (B) CTR-20 at doses of 0.10, 0.39, 1.56 or 6.25 μM; (C) CTR-21 at doses of 7.81, 15.63, 31.25, 62.5, 125 or 250 nM; or (D) CTR-32 at doses of 7.81, 15.63, 31.25, 62.5, 125 or 250 nM for 72 hours. Cell viability was determined using an SRB assay.
(§2) All of the cell lines used were purchased from ATCC and cultured in RPMI-1640 supplemented with 10% fetal bovine serum and antibiotics (100 units penicillin/100 μg/ml streptomycin), unless stated otherwise. 1845B5 and MCF-10A non-cancer breast cell lines were cultured in DME/F12 medium supplemented with 10% fetal bovine serum, antibiotics and growth factors. KB-3-1 is a human epidermal carcinoma cell line and KB-C-2 is its isogenic multidrug-resistant cell line with over-expressing ABCB1/P-gp. […] The human small cell lung carcinoma H69 cell line and its multidrug-resistant MRP1-overexpressing isogenic H69AR cell line were purchased from ATCC. The H69AR cell line was established in the presence of increasing concentrations of Adriamycin (doxorubicin). H69 cells grow as large multi-cell aggregates, making it difficult to accurately count cell numbers. Therefore, the cytotoxicity results obtained from H69AR cells were compared to SW1271, a small cell lung carcinoma cell line without a multidrug-resistant phenotype. The IL-6 dependent bortezomib-resistant ANBL6-BR cell line was further supplemented with 1 ng/ml of IL-6. The MCF10AT1 and MCF10CA1a cell lines are isogenic to the MCF10A cell line, and obtained from Dr. Valerie Weaver at the Center for Bioengineering and Tissue Regeneration, UCSF, CA, USA. MCF10AT1 is a premalignant cell line generated by transforming MCF10A with c-Ha-Ras; and MCF10CA1a was isolated by selecting malignant cells after MCF10AT1 cells were engrafted into mice (Liu & Lin 2004; Marella et al. 2009). The MCF10AT1 and MCF10CA1a cells were cultured in DMEM supplemented with 10% FBS (volume/volume). MDA-MB231TaxR cell line was generated in house by culturing MDA-MB231 cells in gradually increasing doses of paclitaxel over one-year period, and finally maintained at 100 nM paclitaxel. The drug-resistant cells were cultured in the absence of drug for at least one passage before carrying out experiments. All cells were maintained in a humidified incubator at 37° C. (5% CO2/95% air). Cell line authentication was performed using short tandem repeat (STR) profiling.
(§3) For (anti)proliferation assays, 4,000-5,000 cells/well of the 96-well clustered dish were incubated for 16 hours, as described previously (Hu et al., 2008; Skehan et al., 1990). After 16 hours, culture medium was replaced with fresh medium containing different dilutions of test compounds dissolved in DMSO. Some wells were treated with 100 μl of 10% trichloroacetic acid (TCA) as a negative control and sham (medium with dimethyl sulfoxide; DMSO) treated cells were used as a positive control. After 72 hours post-incubation, medium was removed and cells were fixed with 10% TCA at 4° C. for 1 hour. TCA was removed and cells were washed with cold tap water, and plate was air-dried, followed by addition of 50 μl of 0.4% SRB staining solution to each well. After 30 minutes incubation, SRB staining solution was removed. Cells were washed with 1% acetic acid solution, and then washed with tap water to remove unbound staining solution, followed by air-drying. 200 μl of 10 mM (pH10.5) trizma base buffer was added to each well to solubilise macromolecules. SRB stained macromolecules were determined at a 540 nm wavelength using an automated plate reader (Synergy H4 Hybrid Multi-Mode Microplate Reader, BioTek, Winooski, Vt.). Cell growth (inhibition) was calculated by the following formula: […]

[2] = biological target: T1, tubulin (colchicine-binding site) (Sus scrofa, UniProt P02550+P02554); experiment: Colchicine competition assay; parameters: species or system porcine; conditions: colchicine 1.0-8.0 μM
T1 construct: purchased Cytoskeleton Inc. (Denver, Colo.) T240

[3] = SRB cell viability, isogenic breast cell lines; assay type: cell-based; conditions: human, MCF10AT1 cells (pre-malignant breast cells), 31.25 nM
Procedure: as §1, §2, §3

[4] = system: HeLa cells; experiment: Western blotting (PARP cleavage, apoptosis); assay type: cell-based; conditions: by 24-hour post-treatment
Procedure: Exponentially growing cells were collected by centrifugation at 1,100 rpm (Allegra™ X-12 centrifuge, Beckman Coulter) at scheduled time points post-treatment. Cells were washed three times with PBS by centrifugation under the same conditions, followed by cell lysis for 10-15 minutes on ice in 100 μl Lysis buffer (150 mM NaCl, 5 mM EDTA, 1% triton X-100, 10 mM tris pH 7.4, 1 mM PMSF, 5 mM EDTA and 5 mM protease inhibitor). Cell extracts were centrifuged at 11,000 rpm (Allegra™ X-12 centrifuge, Beckman Coulter) for 10 minutes at 4° C. Supernatant was collected and the protein concentration was measured using a BCA assay kit according to the supplier's specifications (Thermo Fisher Scientific, Waltham, Mass.). Cell lysates were then diluted with 2× Iaemmli sample buffer and boiled for 5 minutes at 95-100° C. 30-40 μg protein was loaded on 8% or 10% polyacrylamide gel and resolved by electrophoresis. Proteins were then electronically transferred to a PVDF membrane for 75 minutes at 24 volts, followed by “blocking” with 5% skim milk for 1 hour. Proteins were incubated with primary antibody overnight at 4° C. in 0.1% TBST buffer containing 5% skim milk. The membrane was washed three times with 0.1% TBST buffer and incubated for 1 hour with secondary antibody in TBST buffer containing 5% skim milk. […]

**Q.** For `COc1ccccc1C(=O)/C=C/c1cc2ccccc2[nH]c1=O` [CTR-17, (E)-3-(3-(2-Methoxyphenyl)-3-oxoprop-1-enyl)quinolin-2(1H)-one], which Cell survival rate [1] is on record?
**A.** Its Cell survival rate is 60%.

**Q.** What about the “effect on binding of colchicine to tubulin” value [2] of the same molecule?
**A.** The value was “inhibited the binding of colchicine to tubulin”.

**Q.** With `COc1ccc2[nH]c(=O)c(/C=C/C(=O)c3ccccc3OC)cc2c1` [CTR-20, (E)-6-Methoxy-3-(3-(2-methoxyphenyl)-3-oxoprop-1-enyl) quinolin-2(1H)-one] as the molecule, how does the Cell survival rate [1] read?
**A.** Its Cell survival rate is 20%.

**Q.** And the “effect on binding of colchicine to tubulin” value [2]?
**A.** Its value is “inhibited the binding of colchicine to tubulin”.

**Q.** Which viability at 72 h, 0.03125 µM [3] does the source give for `COc1ccccc1C(=O)/C=C/c1cc2cccc(OC)c2[nH]c1=O` [CTR-21, (E)-8-methoxy-3-(3-(2-methoxyphenyl)-3-oxoprop-1-enyl) quinolin-2(1H)-one] here?
**A.** Its viability at 72 h, 0.03125 µM is 24%.

**Q.** What about the “concentration at which many cells underwent apoptosis (cleavage of PARP)” value [4] of the same molecule?
**A.** The value was no less than 15 nM.

**Q.** For `CCOc1ccccc1C(=O)/C=C/c1cc2ccccc2[nH]c1=O` [CTR-32, (E)-3-(3-(2-ethoxyphenyl)-3-oxoprop-1-enyl)quinolin-2(1H)-one], which viability at 72 h, 0.03125 µM [3] is on record?
**A.** The viability at 72 h, 0.03125 µM was 70%.

**Q.** And the “concentration at which many cells underwent apoptosis (cleavage of PARP)” value [4]?
**A.** The value was no less than 30 nM.
